Laboratory results as given in patent US20230365625A1, “METHODS FOR TREATING AND/OR PREVENTING UNDESIRABLE SEQULAE OF NASAL TURBINOPLASTY OR FUNCTIONAL ENDOSCOPIC SINUS SURGERY” (3-D Matrix, Ltd., priority 2022, published 2023).
Values joined by “and” are separate entries in the source; they are usually repeats but may differ in a detail not shown here. Identical values can stand only once.

Experiments:
[1] = test system: Functional Endoscopic Sinus Surgery (FESS) surgical wound; assay type: in vivo, human
From the text: (§1) Study design—This study was a retrospective chart review of 94 consecutive human patients who underwent FESS and who were operated on by a single surgeon in a single center in Perth, Western Australia. FIGS. 6A and 6B show a flowchart of patients based on extent of surgery and outcomes. Only patients treated with PuraSinus alone (no other hemostatic agent was used) were included in the analysis. Ethics approval was obtained from St John of Good Health Care Human Research Ethics Committee.
(§2) Patient population—The study included adult human patients who underwent FESS procedures and also included patients who underwent FESS in combination with nasal surgery (septoplasty and/or turbinoplasty). Both primary and revision cases were included. Patients were discharged the day after surgery with a recommendation to perform saline nasal irrigations no less than four times a day. Patient characteristics, indication for surgery, extent of surgical intervention, and bleeding and adhesion information was recorded.
(§3) Surgical categories—Procedures were performed according to the minimally invasive sinus technique (MIST), including combination of maxillary antrostomy, ethmoidectomies, sphenoidotomies and frontal sinus (Draf Ila, or Draf 111), turbinate reduction and/or septoplasty. FESS procedures were categorized into two groups: complete FESS (including all sinuses—maxillary antrostomy, ethmoidectomy, sphenoidotomy, and frontal sinusotomy) or limited FESS (anything less than complete FESS, usually involves antrostomy and ethmoidectomy). The surgical extent was dictated by the patient's condition and the surgeon's clinical judgement.
(§4) Material used—PuraSinus (licensed as PuraStat in Australia, 3D-Matrix)/RADA16-I (SEQ ID NO:1) 2.5% w/v in water is a transparent SAP solution supplied sterile in a pre-filled syringe (available in a 3 mL and 5 mL form) ready for use with a thin application nozzle suited for endoscopic catheter administration. The syringe is stored at between 2° C. and 8° C. At completion of the FESS procedure, PuraSinus was applied to the surgical wound in a thin and even layer as close as possible to the bleeding point. A similar application technique has been outlined previously (M. Lee et al., Int. J. Surg. Case Rep. 41: 461-4 (2017)). […] Tissues treated with the hydrogel were visible via endoscope given the gel's transparency.
(§5) Outcomes and objectives—The objectives of this study were to evaluate the effectiveness of PuraSinus in rapidly achieving intraoperative hemostasis and to assess the incidence of delayed bleeding ([…]) and synechiae formation via endoscopic observation of the nasal mucosa at follow-up visits. Primary bleeding was defined as bleeding occurring within 24 hours of surgery.
(§6) Data analysis—Statistical analysis was performed using descriptive statistics for continuous variables and patient demographics were reported. The rate of successful hemostasis and incidence of synechiae formation were calculated as a proportion of total patients undergoing FESS.

[2] = test system: Functional Endoscopic Sinus Surgery (FESS) surgical wound; assay type: in vivo, human; remark: listed apart in the source
From the text: as §1, §2, §3, §4, §5, §6
Adhesions—Nasal endoscopic examination of each patient was performed at a first follow-up visit occurring between 7 and 30 days after surgery (median 15 days, mean±SD 14.0±3.7 days). A subsequent follow-up examination of each patient was performed on average on day 42, ranging from 28 to 79 days post-surgery. […] Debridement of the observed synechiae was performed in these cases in the outpatient setting by either suction (n=13) or scissors (n=10). […] Thus, the desired outcome of intraoperative treatment with PuraSinus (SEQ ID NO:1) in achieving recovery without synechiae formation in these patients was nearly 90% (n=84/94). None of the patients who had required additional intervention for hemostasis subsequently presented with adhesion formation.

CC(=O)N[C@@H](CCCNC(=N)N)C(=O)N[C@@H](C)C(=O)N[C@@H](CC(=O)O)C(=O)N[C@@H](C)C(=O)N[C@@H](CCCNC(=N)N)C(=O)N[C@@H](C)C(=O)N[C@@H](CC(=O)O)C(=O)N[C@@H](C)C(=O)N[C@@H](CCCNC(=N)N)C(=O)N[C@@H](C)C(=O)N[C@@H](CC(=O)O)C(=O)N[C@@H](C)C(=O)N[C@@H](CCCNC(=N)N)C(=O)N[C@@H](C)C(=O)N[C@@H](CC(=O)O)C(=O)N[C@@H](C)C(N)=O [PuraSinus, Ac-RADARADARADARADA-NH2]
Blood transfusion required ([1]; human, in vivo): None of the patients in this study required a blood transfusion | Secondary bleed, patients ([1]; more than 24 hours after surgery, n of 94): 3 | Secondary bleed, rate ([1]; more than 24 hours after surgery, of 94 patients): 3.2% | Intervention required for bleeding, patients ([1]; n of 94): 4 | Intervention required, primary bleed, patients ([1]; n of 94): 3 | Intervention required, secondary bleed, patients ([1]; n of 94): 1 | Bleed (postoperative), patients ([1]; n of 94 patients): 6 | Hemostatic effectiveness, patients ([1]; no bleeding or no intervention required, n of 94): 90 | Hemostatic effectiveness, rate ([1]; no bleeding or no intervention required, of 94 patients): 95.7% | Type of intervention: Cautery + Surgiflo, patients ([1]; of 4 interventions): 1 | Type of intervention: Cautery + additional PuraSinus, patients ([1]; of 4 interventions): 1 | Type of intervention: Cautery alone, patients ([1]; of 4 interventions): 1 | Type of intervention: Packing, patients ([1]; of 4 interventions): 1 | Bleeding patients on anticoagulation/antiplatelets post-op ([1]; of 6 bleeds): 1 | Bleeding patients with suspected or confirmed coagulopathy ([1]; of 6 bleeds): 2 | Patients with postoperative bleeding: Complete FESS ([1]; of 6 bleeds): 1 | Patients with postoperative bleeding: Female ([1]; of 6 bleeds): 5 | Patients with postoperative bleeding: Limited FESS ([1]; of 6 bleeds): 5 | Patients with postoperative bleeding: Male ([1]; of 6 bleeds): 1 | Bleed (postoperative), rate ([1]; of 94 patients): 6.4% | Intervention required for bleeding, rate ([1]; of 94 patients): 4.3% and 4.2% | Intervention required, primary bleed, rate ([1]; of 94 patients): 3.2% | Intervention required, secondary bleed, rate ([1]; of 94 patients): 1.1% | Re-bleeds in patients with primary or secondary bleeds ([1]; result in words): no re-bleeds recorded | Hemostasis in the absence of other hemostatic agents and devices ([1]; result in words, most patients): effective hemostasis | Primary bleed, patients ([1]; within 24 hours of surgery, n of 94): 3 | Primary bleed, rate ([1]; within 24 hours of surgery, of 94 patients): 3.2% | Adhesion formation at first follow up visit, patients ([2]; 7-30 days after surgery): 18 | Persisting adhesions, patients ([2]; final outcome, of 23): 5 | Resolved adhesions, patients ([2]; final outcome, of 23): 18 | Adhesion formation, total patients ([2]; full follow-up period, n of 94): 23 | Adhesion (synechiae) formation, rate ([2]; full follow-up period, of 94 patients): 24.5% | Pain at the surgical site ([2]; human, in vivo): all patients expressed comfort with no pain | Patients with no adhesions found ([2]; n of 94): 71 | Adhesion location: Inferior turbinate/septum + medial turbinate/lateral wall, patients ([2]; of 23): 4 | Adhesion location: Inferior turbinate/septum, patients ([2]; of 23): 12 | Adhesion location: Medial turbinate/lateral wall, patients ([2]; of 23): 7 | Debridement by scissors (sharp), patients ([2]; of 23): 10 | Debridement by suction, patients ([2]; of 23): 13 | Patients with adhesion formation: Complete FESS ([2]; of 23): 8 | Patients with adhesion formation: Female ([2]; of 23): 16 | Patients with adhesion formation: Limited FESS ([2]; of 23): 15 | Patients with adhesion formation: Male ([2]; of 23): 7 | Patients free of adhesions, rate ([2]; second follow-up examination, of 94 patients): ~90% and 89.4% | Patients without adhesions ([2]; second follow-up, no adhesions or adhesions easily removed by suction, of 94): 84 and 84/94
